This is an account of results in patent US11109593B2, “Isoxazolin-5-one derivative and herbicide containing same as active ingredient” (HOKKO CHEMICAL INDUSTRY CO., LTD., priority 2017, dated 2021).

Common to all, as to format: in vivo
The test system of assay [1] is Chenopodium album. Kind of assay: Test Example 3: herbicidal effect test by treatment of dry field farming soil (one day after seeding). The following applies: 120 g/10a active ingredient, evaluated 14 days after treatment. In short, it runs like this:
(§1)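 Compound emulsions are sprayed on the soil surface one day after sowing (120 g a.i. per 10 ares) before weeds emerge. Effect is expressed as percent dry-weight reduction versus untreated controls 14 days post-treatment.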

Assay [2] relates to southern crabgrass. Described as above. The following applies: 120 g/10a active ingredient, evaluated 14 days after treatment. The method in brief: as §1
The test system of assay [3] is Amaranthus viridis. The description is as above. To be noted: 120 g/10a active ingredient, evaluated 14 days after treatment. In short, it runs like this: as §1
For assay [4], the system named is Echinochloa crus-galli. The assay is described as above. To be noted: 120 g/10a active ingredient, evaluated 14 days after treatment. In short, it runs like this: as §1
Assay [5] concerns broad leaf weeds (Lindernia pyxidaria and Monochoria vaginalis). Put plainly: Test Example 2: herbicidal effect test by treatment during growing period in paddy rice cultivation (seven days after seeding). The following applies: 120 g/10a active ingredient, assessed 14 days after treatment, dry weight vs untreated area. The method in brief:
(§2)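 Greenhouse flooded-pot test, seeds sown in puddled paddy soil; emulsion applied into water 7 d after seeding, 120 g a.i./10 a. Dry-weight-based herbicidal rate at 14 d, n=2.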

Assay [6] deals with Echinochloa crus-galli. The assay is described as above. To be noted: 120 g/10a active ingredient, assessed 14 days after treatment, dry weight vs untreated area. The method in brief:
as §2

The subject of assay [7] is Scirpus juncoides. The description is as above. The following applies: 120 g/10a active ingredient, assessed 14 days after treatment, dry weight vs untreated area. In short, it runs like this:
as §2

Assay [8] concerns Chenopodium album. Put plainly: Test Example 4: herbicidal effect test by treatment of leave and stem in dry field farming (seven days after seeding). The following applies: 120 g/10a active ingredient; emulsion sprayed seven days after seeding; evaluated 14 days after treatment. In short, it runs like this: (§3)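 Weeds were seeded at 20 seeds per species into the top 1 cm of alluvial upland soil in pots, then sprayed 7 days after seeding with water-diluted emulsifiable concentrate at 100 L/10 a, giving 120 g active ingredient/10 a. Duplicate pots; herbicidal rate (%) was 14 days post-treatment, from dry weight versus untreated.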

Assay [9] concerns southern crabgrass. Described as above. To be noted: 120 g/10a active ingredient; emulsion sprayed seven days after seeding; evaluated 14 days after treatment. In short, it runs like this:
as §3

The test system of assay [10] is Amaranthus viridis. The assay is described as above. To be noted: 120 g/10a active ingredient; emulsion sprayed seven days after seeding; evaluated 14 days after treatment. The method in brief: as §3
The test system of assay [11] is Echinochloa crus-galli. The description is as above. To be noted: 120 g/10a active ingredient; emulsion sprayed seven days after seeding; evaluated 14 days after treatment. In short, it runs like this: as §3
Assay [12] relates to broad leaf weeds (Lindernia pyxidaria and Monochoria vaginalis). Put plainly: Test Example 1: herbicidal effect test by treatment of rice paddy soil (immediately after seeding). To be noted: 120 g/10a active ingredient, dry weight vs untreated area, 14 days after treatment. The method in brief: (§4)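 Applied at 120 g a.i./10 ares as diluted emulsion dropped into flooded (~3 cm) paddy soil pots right after sowing seeds 0–1 cm deep; greenhouse, two replicates. At day 14, dry weight of treated versus untreated plants gives % herbicidal rate.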

The subject of assay [13] is Echinochloa crus-galli. Described as above. The following applies: 120 g/10a active ingredient, dry weight vs untreated area, 14 days after treatment. The method in brief: as §4
For assay [14], the system named is Scirpus juncoides. Described as above. To be noted: 120 g/10a active ingredient, dry weight vs untreated area, 14 days after treatment. In short, it runs like this:
as §4

As to `CCC(C)n1oc(=O)c(Cc2ccccc2N(C(=O)CC(C)C)S(=O)(=O)C(F)(F)F)c1C` (stereo not shown) [Compound 1-352], in assay [1], the “herbicidal rate, Chenopodium album” value was found to be 90%. In addition, the “herbicidal rate, southern crabgrass” value in assay [2] worked out at 90%. Moreover, in assay [3], the “herbicidal rate, Amaranthus viridis” value is 90%. Besides, the “herbicidal rate, Echinochloa crus-galli” value in assay [4] was 90%. Also, the “Herbicidal rate (%) Lindernia pyxidaria” value in [5] and in assay [12] was 90% throughout. Besides, the “Herbicidal rate (%) Monochoria vaginalis” value in assay [5] and in [12] was 90% throughout. The “Herbicidal rate (%) Echinochloa crus-galli” value in [6] and in assay [13] was 90% in each case. The “Herbicidal rate (%) Scirpus juncoides” value in [7] and in assay [14] was 90% each time. Further, the “herbicidal effect (herbicidal rate), Chenopodium album” value (from here on “herbicidal effect … Chenopodium album”) in [8] is listed as 40%. Also, the “herbicidal effect (herbicidal rate), southern crabgrass” value (from here on “herbicidal effect … southern crabgrass”) in assay [9] is 90%. Besides, in assay [10], the “herbicidal effect (herbicidal rate), Amaranthus viridis” value (shortened to “herbicidal effect … Amaranthus viridis”) is 40%. For the same compound, the “herbicidal effect (herbicidal rate), Echinochloa crus-galli” value in [11] worked out at 90%.

Consider `CSCCn1oc(=O)c(Cc2ccccc2N(S(C)(=O)=O)S(=O)(=O)C(F)(F)F)c1C` [Compound 1-900], for which, in assay [1], the “herbicidal rate, Chenopodium album” value turned out to be 90%. In [2], the “herbicidal rate, southern crabgrass” value is given as 90%. Moreover, the “herbicidal rate, Amaranthus viridis” value in [3] stood at 90%. Also, the “herbicidal rate, Echinochloa crus-galli” value in assay [4] came to 90%. Besides, the “Herbicidal rate (%) Lindernia pyxidaria” value in assay [5] and in assay [12] was 90% in each case. The “Herbicidal rate (%) Monochoria vaginalis” value in [5] and in assay [12] was 90% each time. Further, the “Herbicidal rate (%) Echinochloa crus-galli” value in assay [6] and in assay [13] was 90% each time. Also, the “Herbicidal rate (%) Scirpus juncoides” value in [7] and in [14] was 90% each time. For the same compound, the “herbicidal effect … Chenopodium album” value in [8] is 40%. For the same compound, the “herbicidal effect … southern crabgrass” value in [9] was determined as 90%. In addition, the “herbicidal effect … Amaranthus viridis” value in [10] is recorded as 40%. Further, the “herbicidal effect (herbicidal rate), Echinochloa crus-galli” value in [11] is on record as 90%.

As to `CCC(C)n1oc(=O)c(Cc2ccccc2N(C(=O)OC(C)C)S(=O)(=O)C(F)(F)F)c1C` (stereo not shown) [Compound 1-642], the “herbicidal rate, Chenopodium album” value in assay [1] was found to be 90%. Moreover, the “herbicidal rate, southern crabgrass” value in [2] is recorded as 90%. Further, in assay [3], the “herbicidal rate, Amaranthus viridis” value is on record as 90%. In addition, in [4], the “herbicidal rate, Echinochloa crus-galli” value worked out at 90%. Also, the “Herbicidal rate (%) Lindernia pyxidaria” value in assay [5] and in assay [12] was 90% in each case. The “Herbicidal rate (%) Monochoria vaginalis” value in assay [5] and in [12] was 90% in each case. Further, the “Herbicidal rate (%) Echinochloa crus-galli” value in [6] and in [13] was 90% in each case. For the same compound, the “Herbicidal rate (%) Scirpus juncoides” value in assay [7] and in [14] was 90% throughout. Moreover, in assay [8], the “herbicidal effect … Chenopodium album” value worked out at 40%. For the same compound, the “herbicidal effect … southern crabgrass” value in [9] is 90%. The “herbicidal effect … Amaranthus viridis” value in [10] was 40%. The “herbicidal effect (herbicidal rate), Echinochloa crus-galli” value in assay [11] amounted to 90%.

For the compound `CCC(C)CCn1oc(=O)c(Cc2ccccc2NS(=O)(=O)C(F)(F)F)c1C` (stereo not shown) [Compound 1-124], the “herbicidal rate, Chenopodium album” value in [1] was found to be 50%. Moreover, the “herbicidal rate, southern crabgrass” value in assay [2] is 80%. In addition, the “herbicidal rate, Amaranthus viridis” value in assay [3] amounted to 40%. The “herbicidal rate, Echinochloa crus-galli” value in assay [4] is reported as 100%. Besides, the “Herbicidal rate (%) Lindernia pyxidaria” value stood at 60% in [5] and 90% in [12]. Moreover, the “Herbicidal rate (%) Monochoria vaginalis” value in assay [5] is 70%; in assay [12], 90%. Also, the “Herbicidal rate (%) Echinochloa crus-galli” value in assay [6] is given as 90%; in assay [13], 100%. In addition, the results for the “Herbicidal rate (%) Scirpus juncoides” value in [7] and in assay [14] were 80% and 90%, respectively. Besides, the “herbicidal effect … Chenopodium album” value in assay [8] worked out at 40%. For the same compound, the “herbicidal effect … southern crabgrass” value in [9] was determined as 60%. Further, in [10], the “herbicidal effect … Amaranthus viridis” value is given as 40%. For the same compound, the “herbicidal effect (herbicidal rate), Echinochloa crus-galli” value in assay [11] came to 70%.
